In patent US8846685B2, “Human protein tyrosine phosphatase inhibitors and methods of use” (Aerpio Therapeutics Inc., priority 2006, dated 2014):
pIC50: −log10 of the molar value.

biological target: T1, PTP1B (Homo sapiens, UniProt P18031); test: PTP1B activity (IC50); format: biochemical
T1 sequence (P18031 1-435): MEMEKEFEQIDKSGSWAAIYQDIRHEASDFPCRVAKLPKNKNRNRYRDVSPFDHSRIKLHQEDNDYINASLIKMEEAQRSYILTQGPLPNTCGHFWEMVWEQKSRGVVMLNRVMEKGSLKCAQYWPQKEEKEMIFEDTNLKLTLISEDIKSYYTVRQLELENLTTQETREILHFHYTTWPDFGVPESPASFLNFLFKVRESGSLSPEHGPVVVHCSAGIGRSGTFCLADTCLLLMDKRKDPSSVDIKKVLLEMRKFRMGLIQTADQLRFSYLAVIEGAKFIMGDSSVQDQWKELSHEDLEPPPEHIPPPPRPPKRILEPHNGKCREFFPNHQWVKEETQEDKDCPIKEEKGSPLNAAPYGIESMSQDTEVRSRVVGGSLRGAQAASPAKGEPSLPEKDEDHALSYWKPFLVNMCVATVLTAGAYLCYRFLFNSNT

| SMILES | pIC50 |
| --- | --- |
| COC(=O)N[C@@H](Cc1ccccc1)C(=O)N[C@@H](Cc1ccc(NS(=O)(=O)O)cc1)c1nc(-c2ccsc2)cs1 [compound 73] | 6.05 |
| COC(=O)N[C@@H](Cc1ccccc1)C(=O)N[C@@H](Cc1ccc(NS(=O)(=O)O)cc1)c1cscn1 [compound 76] | 6.43 |
| COC(=O)N[C@@H](Cc1ccccc1)C(=O)N[C@@H](Cc1ccc(NS(=O)(=O)O)cc1)c1nc(C)c(-c2ccccc2)s1 [compound 78] | 6.77 |
| COC(=O)N[C@@H](Cc1ccccc1)C(=O)N[C@@H](Cc1ccc(NS(=O)(=O)O)cc1)c1nc2ccccc2s1 [compound 79] | 6.13 |
| CCc1nc([C@H](Cc2ccc(NS(=O)(=O)O)cc2)NC(=O)[C@H](Cc2ccccc2)N(C)C(=O)OC)cs1 [compound 82] | 6.15 |
| COC(=O)N(C)[C@@H](Cc1ccccc1)C(=O)N[C@@H](Cc1ccc(NS(=O)(=O)O)cc1)c1csc(-c2cccs2)n1 [compound 83] | 4.88 |

Continued, values first:

| pIC50 | SMILES |
| --- | --- |
| 6.29 | COC(=O)N[C@@H](Cc1ccccc1)C(=O)N[C@@H](Cc1ccc(NS(=O)(=O)O)cc1)c1csc(-c2ccc(-c3ccccn3)s2)n1 [compound 77] |
| 6.52 | CCc1csc([C@H](Cc2ccc(NS(=O)(=O)O)cc2)NC(=O)[C@H](Cc2ccccc2)NC(=O)CNC(=O)OC)n1 [compound 80] |
| 6.19 | CCc1cnc([C@H](Cc2ccc(NS(=O)(=O)O)cc2)NC(=O)[C@H](Cc2ccccc2)N(C)C(=O)OC)s1 [compound 81] |
